Measurements published in the NIST ThermoML archive (doi:10.1016/j.jct.2010.11.014).
Numbers after ± are expanded uncertainties.

Key:
[1] = molar heat capacity at constant pressure; xn = mol fraction of the nth substance listed; settings: 101.3 kPa, Liquid, Adiabatic Solution Calorimetry
[2] = excess molar enthalpy (molar enthalpy of mixing); xn = mol fraction of the nth substance listed; settings: 298.15 K, 101.3 kPa, Liquid, Adiabatic Solution Calorimetry

Compound | molar heat capacity at constant pressure ([1]; 298.15 K, x1 = 0.2) | molar heat capacity at constant pressure ([1]; 298.15 K, x1 = 0.4) | molar heat capacity at constant pressure ([1]; 298.15 K, x1 = 0.6) | molar heat capacity at constant pressure ([1]; 298.15 K, x1 = 0.8) | molar heat capacity at constant pressure ([1]; 298.15 K, x1 = 1) | molar heat capacity at constant pressure ([1]; 303.15 K, x1 = 0.2) | molar heat capacity at constant pressure ([1]; 303.15 K, x1 = 0.4) | molar heat capacity at constant pressure ([1]; 303.15 K, x1 = 0.6) | molar heat capacity at constant pressure ([1]; 303.15 K, x1 = 0.8) | molar heat capacity at constant pressure ([1]; 303.15 K, x1 = 1) | molar heat capacity at constant pressure ([1]; 313.15 K, x1 = 0.2) | molar heat capacity at constant pressure ([1]; 313.15 K, x1 = 0.4) | molar heat capacity at constant pressure ([1]; 313.15 K, x1 = 0.6) | molar heat capacity at constant pressure ([1]; 313.15 K, x1 = 0.8) | molar heat capacity at constant pressure ([1]; 313.15 K, x1 = 1) | molar heat capacity at constant pressure ([1]; 323.15 K, x1 = 0.2) | molar heat capacity at constant pressure ([1]; 323.15 K, x1 = 0.4) | molar heat capacity at constant pressure ([1]; 323.15 K, x1 = 0.6) | molar heat capacity at constant pressure ([1]; 323.15 K, x1 = 0.8) | molar heat capacity at constant pressure ([1]; 323.15 K, x1 = 1) | further results
CCn1cc[n+](C)c1.COP(=O)([O-])OC [1-ethyl-3-methylimidazolium dimethylphosphate] + CCO | 153.21 ± 38 J/K/mol | 220.84 ± 55 J/K/mol | 272.51 ± 72 J/K/mol | 324.35 ± 90 J/K/mol | 329.37 ± 110 J/K/mol | 171.31 ± 38 J/K/mol | 235.29 ± 55 J/K/mol | 289.67 ± 72 J/K/mol | 348.58 ± 90 J/K/mol | 346.23 ± 110 J/K/mol | 205.63 ± 38 J/K/mol | 282.28 ± 55 J/K/mol | 340.78 ± 72 J/K/mol | 404 ± 90 J/K/mol | 381.64 ± 110 J/K/mol | 258.83 ± 38 J/K/mol | 335.32 ± 55 J/K/mol | 398.34 ± 72 J/K/mol | 448.05 ± 90 J/K/mol | 411.74 ± 110 J/K/mol | excess molar enthalpy ([2]; x1 = 0.15): -0.428 ± 0.0206 kcal/mol; excess molar enthalpy ([2]; x1 = 0.31): -0.656 ± 0.0206 kcal/mol; excess molar enthalpy ([2]; x1 = 0.47): -0.57 ± 0.0206 kcal/mol; excess molar enthalpy ([2]; x1 = 0.59): -0.522 ± 0.0206 kcal/mol; excess molar enthalpy ([2]; x1 = 0.8): -0.286 ± 0.0203 kcal/mol
CCn1cc[n+](C)c1.COP(=O)([O-])OC [1-ethyl-3-methylimidazolium dimethylphosphate] + CO | 147.03 ± 28 J/K/mol | – | – | – | 329.37 ± 91 J/K/mol | 163.64 ± 28 J/K/mol | – | – | – | 346.23 ± 91 J/K/mol | 215.28 ± 28 J/K/mol | – | – | – | 381.64 ± 91 J/K/mol | 252.08 ± 28 J/K/mol | – | – | – | 411.74 ± 91 J/K/mol | molar heat capacity at constant pressure ([1]; 298.15 K, x1 = 0.41): 213.84 ± 44 J/K/mol; molar heat capacity at constant pressure ([1]; 298.15 K, x1 = 0.59): 269.26 ± 59 J/K/mol; molar heat capacity at constant pressure ([1]; 298.15 K, x1 = 0.77): 297.59 ± 73 J/K/mol; molar heat capacity at constant pressure ([1]; 303.15 K, x1 = 0.41): 229.84 ± 44 J/K/mol; molar heat capacity at constant pressure ([1]; 303.15 K, x1 = 0.59): 289.07 ± 59 J/K/mol; molar heat capacity at constant pressure ([1]; 303.15 K, x1 = 0.77): 306.37 ± 73 J/K/mol; molar heat capacity at constant pressure ([1]; 313.15 K, x1 = 0.41): 271.99 ± 44 J/K/mol; molar heat capacity at constant pressure ([1]; 313.15 K, x1 = 0.59): 337.82 ± 59 J/K/mol; molar heat capacity at constant pressure ([1]; 313.15 K, x1 = 0.77): 334.16 ± 73 J/K/mol; molar heat capacity at constant pressure ([1]; 323.15 K, x1 = 0.41): 312.33 ± 44 J/K/mol; molar heat capacity at constant pressure ([1]; 323.15 K, x1 = 0.59): 370.93 ± 59 J/K/mol; molar heat capacity at constant pressure ([1]; 323.15 K, x1 = 0.77): 371.12 ± 73 J/K/mol; excess molar enthalpy ([2]; x1 = 0.1): -0.376 ± 0.043 kcal/mol; excess molar enthalpy ([2]; x1 = 0.3): -0.803 ± 0.043 kcal/mol; excess molar enthalpy ([2]; x1 = 0.5): -0.801 ± 0.043 kcal/mol; excess molar enthalpy ([2]; x1 = 0.65): -0.62 ± 0.043 kcal/mol; excess molar enthalpy ([2]; x1 = 0.79): -0.435 ± 0.043 kcal/mol
CCn1cc[n+](C)c1.COP(=O)([O-])OC [1-ethyl-3-methylimidazolium dimethylphosphate] + O | – | 167.14 ± 31 J/K/mol | 224.66 ± 43 J/K/mol | 279.14 ± 56 J/K/mol | 329.37 ± 69 J/K/mol | – | 176.74 ± 31 J/K/mol | 242.41 ± 43 J/K/mol | 288.72 ± 56 J/K/mol | 346.23 ± 69 J/K/mol | – | 203.5 ± 31 J/K/mol | 276.49 ± 43 J/K/mol | 323.78 ± 56 J/K/mol | 381.64 ± 69 J/K/mol | – | 228.82 ± 31 J/K/mol | 304.05 ± 43 J/K/mol | 352.68 ± 56 J/K/mol | 411.74 ± 69 J/K/mol | molar heat capacity at constant pressure ([1]; 298.15 K, x1 = 0.18): 119.02 ± 17 J/K/mol; molar heat capacity at constant pressure ([1]; 303.15 K, x1 = 0.18): 125.02 ± 17 J/K/mol; molar heat capacity at constant pressure ([1]; 313.15 K, x1 = 0.18): 134.91 ± 17 J/K/mol; molar heat capacity at constant pressure ([1]; 323.15 K, x1 = 0.18): 148.41 ± 17 J/K/mol; excess molar enthalpy ([2]; x1 = 0.18): -1.26 ± 0.0287 kcal/mol; excess molar enthalpy ([2]; x1 = 0.31): -1.51 ± 0.0287 kcal/mol; excess molar enthalpy ([2]; x1 = 0.45): -1.44 ± 0.0287 kcal/mol; excess molar enthalpy ([2]; x1 = 0.64): -1.15 ± 0.0287 kcal/mol; excess molar enthalpy ([2]; x1 = 0.82): -0.604 ± 0.0287 kcal/mol
